In patent publication US6602690B2, “Process for production of dihomo-γ-linolenic acid and lipid containing same” (Suntory, Ltd., priority 1991, dated 2003):

What was measured:
[1] = system: mutant Mortierella alpina SAM 1860; assay: Culturing of mutant Mortierella alpina SAM 1860 in medium with added substrate (Example 3), fatty acid methyl esters analysed by gas chromatography; format: cell-based; details: 0.5% additive in medium with 2% glucose, 1% yeast extract, 0.2% Tween 20; 28° C., 7 days
Protocol: These cells were extracted with a solvent of one phase chloroform/methanol/water according to Bligh & Dyer extraction method to obtain total lipids in an amount of 505 mg from the strain IFO 8568, and an amount of 530 mg from the mutant SAM 1860. These lipids were subjected to methyl-esterification using anhydrous methanol/hydrochloric acid (95:5) at 50° C. for 3 hours, and the resulting fatty acid methyl esters were extracted to obtain 417 mg of a total fatty acid methyl ester preparation from the strain IFO 8568, and 454 mg of a total fatty acid preparation from the mutant SAM 1860. The fatty acid methyl ester preparations were analyzed by gas chromatography.
20 ml of a medium (pH 6.0) containing 2% glucose; 1% yeast extract; 0.2% Tween 20; and 0.5% hydrocarbon, sodium salt of fatty acid, fatty acid ester, or fat or oil, was put into a 100 ml Erlenmeyer flask, and autoclaved at 120° C. for 20 minutes.
A mutant Mortierella alpina SAM 1860 was added to each flask, and cultured on a reciprocating shaker (110 rpm) at 28° C. for 7 days. For the resulting cell preparations, fatty acid methyl esters were analyzed by gas chromatography as described in Example 1.

mutant SAM 1860 = assay: Culturing of mutant SAM 1860 with sesamin-containing soybean oil (Example 5); format: cell-based, Mortierella alpina
Protocol: (§1) 100 ml each of a medium (pH 6.0) containing 4% glucose and 1% yeast extract was put into 4 Erlenmeyer flasks having a volume of 500 ml, and 0.5 ml each of soybean oil in which sesamin (2,6-bis-(3,4-methylenedioxyphenyl)-cis-3,7-dioxabicyclo[3,3,0]octane) had been dissolved to a sesamin concentration of 15% by weight was added to 2 flasks, and 0.5 ml each of soybean oil was added 2 other flasks, and the flasks were sterilized at 120° C. for 20 minutes.
(§2) Mortierella alpina IFO 8568 (Comparative Example) was added to two different media, and the mutant SAM 1860 (Example) was add to other different media.
(§3) The strains were cultured on a reciprocating shaker (110 rpm) at 28° C. for 7 days. After 24 hours from the start of culturing, 0.5 ml each of the sesamin-containing soybean oil was added to the media to which the sesamin-containing soybean oil had been added, and 0.5 ml each of soybean oil was added to the media to which soybean oil had been added. After culturing, a fatty acid methyl ester preparation was analyzed by gas chromatography as described in Example 1.

[2] = system: Mortierella alpina IFO 8568; assay: Culturing of Mortierella alpina IFO 8568 with sesamin-containing soybean oil (Example 5, Comparative Example); format: cell-based; details: strain IFO 8568; soybean oil with 15% by weight sesamin, 0.5 ml at start and after 24 hours per 100 ml; 28° C., 7 days
Protocol: as §1, §2, §3

[3] = Example 5 cultures (Table 4), strain not specified

Q: Which ARA [1] does the source give for CCCCCCCC/C=C\CCCCCCCC(=O)[O-].[Na+] [Sodium oleate] here?
A: 0.48 g/L

Q: What about the DGLA [1] of the same molecule?
A: 1.40 g/L

Q: What about the Dry cells [1] of the same molecule?
A: 15.5 g/L

Q: Which ARA [1] does the source give for CCCCC/C=C\C/C=C\CCCCCCCC(=O)[O-].[Na+] [Sodium linoleate] here?
A: 0.49 g/L

Q: And the DGLA [1]?
A: 1.40 g/L

Q: What about the Dry cells [1] of the same molecule?
A: 14.8 g/L

Q: Which results are given for CCCCCCCCCCCCCCCC [Hexadecane]?
A: ARA [1]: 0.55 g/L; DGLA [1]: 1.89 g/L; Dry cells [1]: 18.1 g/L

Q: With c1cc2c(cc1[C@H]1OC[C@H]3[C@@H]1CO[C@@H]3c1ccc3c(c1)OCO3)OCO2 [sesamin, 2,6-bis-(3,4-methylenedioxyphenyl)-cis-3,7-dioxabicyclo[3,3,0]octane] as the molecule, how does the “effect of addition on the amount of dry cells” value (mutant SAM 1860; [3]) read?
A: did not effect

Q: What about the “effect of addition on the amount of total fatty acids produced” value (mutant SAM 1860; [3]) of the same molecule?
A: did not effect

Q: What about the “Ratio of DGLA:ARA” value (mutant SAM 1860; mutant SAM 1860, soybean oil with 15% by weight sesamin, 0.5 ml at start and after 24 hours per 100 ml, 28° C., 7 days) of the same molecule?
A: 12.3

Q: And the “Ratio of DGLA:ARA” value [2]?
A: ≤ 1.17

Q: With CCCCC/C=C\C/C=C\CCCCCCCC(=O)OC [Methyl linoleate] as the molecule, how does the ARA [1] read?
A: 0.60 g/L

Q: What about the DGLA [1] of the same molecule?
A: 2.15 g/L

Q: What about the Dry cells [1] of the same molecule?
A: 18.7 g/L

Q: What does the source list for CCCCCCCCCCCCCCCCCC [Octadecane]?
A: ARA [1]: 0.50 g/L; DGLA [1]: 1.80 g/L; Dry cells [1]: 18.3 g/L

Q: With CCCCCCCC/C=C\CCCCCCCC(=O)OC [Methyl oleate] as the molecule, how does the ARA [1] read?
A: 0.56 g/L

Q: What about the DGLA [1] of the same molecule?
A: 1.99 g/L

Q: And the Dry cells [1]?
A: 18.1 g/L
